In the experiment the target is T1, Full-length, GST-tagged, human CaMKIIδ (Homo sapiens, UniProt Q13557).
T1 construct: Full-Length, Glutathione-S-Transferase(GST)-Tagged, Human CaMKIIδ was purchased from Carna Biosciences; purchased Carna Biosciences 02-111
Nature of the experiment: CaMKIIδ binding assay (TR-FRET with BODIPY-labeled probe ligand). In a few lines:
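TR-FRET probe-displacement binding: 0.5 nM GST-CaMKIIδ with 10 μg/mL calmodulin, 1 mM CaCl2, 0.21 nM Tb-anti-GST Ab and 300 nM BODIPY probe in HEPES pH 7.6 buffer. Eight-point 4-fold dilutions, 1 hr at room temperature. IC50 from logistic fit; 100% inhibition defined by 3 μM parent compound.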
(In general: Time-resolved FRET reads energy transfer from a long-lived donor to a nearby acceptor.)

[1] abbreviates: CaMKIIδ binding assay, activity class per Table 2.
Setting [2] is: Table 2, CaMKIIδ binding assay, activity given as class A/B/C.
Setting [3] is: Table 2, activity class for CaMKIIδ.
Where [4] appears, read: CaMKIIδ binding assay, results of Table 2.

Drawing on patent US10543212B2, “Substituted amines for treating cardiac diseases” (Cardurion Pharmaceuticals, LLC, priority 2017, dated 2020), this text covers IC50 for 25 compounds.

Molecules are shown by their SMILES. Bounds are passed on as bounds.

T1 sequence (Q13557 1-478 isoform Q13557-12): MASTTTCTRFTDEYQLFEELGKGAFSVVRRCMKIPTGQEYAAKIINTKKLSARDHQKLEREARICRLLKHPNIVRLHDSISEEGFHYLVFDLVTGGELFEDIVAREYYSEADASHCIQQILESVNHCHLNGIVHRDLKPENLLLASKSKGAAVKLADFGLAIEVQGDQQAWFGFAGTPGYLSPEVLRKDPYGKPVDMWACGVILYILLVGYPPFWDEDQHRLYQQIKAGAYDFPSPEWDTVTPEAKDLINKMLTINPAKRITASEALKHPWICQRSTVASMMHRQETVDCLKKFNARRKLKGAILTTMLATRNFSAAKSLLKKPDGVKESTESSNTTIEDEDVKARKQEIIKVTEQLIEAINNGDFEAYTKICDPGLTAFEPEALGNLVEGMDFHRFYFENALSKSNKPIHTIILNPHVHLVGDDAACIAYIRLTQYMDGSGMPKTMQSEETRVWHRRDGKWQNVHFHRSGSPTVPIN

In the case of `C[C@@H](Cn1cnnn1)Oc1cc(-c2cnc(Nc3cn(C4CC5(CNC5)C4)nc3C(F)(F)F)nc2)ccc1Cl` [Example 920, (S)-5-(3-((1-(1H-tetrazol-1-yl)propan-2-yl)oxy)-4-chlorophenyl)-N-(1-(2-azaspiro[3.3]heptan-6-yl)-3-(trifluoromethyl)-1H-pyrazol-4-yl)pyrimidin-2-amine], the IC50 (in general, the concentration that gives 50% inhibition) under setting [1] is below 10 nM. Take `C[C@@H](Cn1cnnn1)Oc1cc(-c2cnc(Nc3sc4c(c3C#N)CCCC4)nc2)ccc1Cl` [Example 752, (S)-2-((5-(3-((1-(1H-tetrazol-1-yl)propan-2-yl)oxy)-4-chlorophenyl)pyrimidin-2-yl)amino)-4,5,6,7-tetrahydrobenzo[b]thiophene-3-carbonitrile]: the half-maximal inhibitory concentration (IC50) under setting [2] was in the range of 10 to 100 nM. The compound `C[C@@H](Cn1cnnn1)Oc1cc(-c2cnc(Nc3cn(CCCO)nc3C(F)(F)F)nc2)ccc1Cl` [Example 718, (S)-3-(4-((5-(3-((1-(1H-tetrazol-1-yl)propan-2-yl)oxy)-4-chlorophenyl)pyrimidin-2-yl)amino)-3-(trifluoromethyl)-1H-pyrazol-1-yl)propan-1-ol] showed an IC50 under setting [3] of 10 to 100 nM.

Compound `C[C@@H](Cn1cnnn1)Oc1cc(-c2cnc(Nc3cn(C4CCCN(C(=O)OC(C)(C)C)C4)nc3C(F)(F)F)nc2)ccc1Cl` (stereo partly drawn) [Example 599, tert-butyl 3-(4-((5-(3-(((S)-1-(1H-tetrazol-1-yl)propan-2-yl)oxy)-4-chlorophenyl)pyrimidin-2-yl)amino)-3-(trifluoromethyl)-1H-pyrazol-1-yl)piperidine-1-carboxylate] registered a half-inhibitory concentration (IC50) under setting [3] of at least 100 nM. For `CC(C(N)=O)n1cc(Nc2ncc(-c3ccc(Cl)c(O[C@@H](C)Cn4cnnn4)c3)cn2)c(C(F)(F)F)n1` (stereo partly drawn) [Example 713, 2-(4-((5-(3-(((S)-1-(1H-tetrazol-1-yl)propan-2-yl)oxy)-4-chlorophenyl)pyrimidin-2-yl)amino)-3-(trifluoromethyl)-1H-pyrazol-1-yl)propanamide], the IC50 under setting [3] is below 10 nM. The compound `C[C@@H](Cn1cnnn1)Oc1cc(-c2cnc(Nc3cn(C4CN(C5CCOCC5)C4)nc3C(F)(F)F)nc2)ccc1Cl` [Example 698, (S)-5-(3-((1-(1H-tetrazol-1-yl)propan-2-yl)oxy)-4-chlorophenyl)-N-(1-(1-(tetrahydro-2H-pyran-4-yl)azetidin-3-yl)-3-(trifluoromethyl)-1H-pyrazol-4-yl)pyrimidin-2-amine] yielded an IC50 under setting [3] below 10 nM.

Compound `CC(C)c1nn(C2CC3(C2)CN(C2COCCOC2)C3)cc1Nc1ncc(-c2ccc(Cl)c(O[C@@H](C)Cn3cnnn3)c2)cn1` [Example 983, (S)-N-(1-(2-(1,4-dioxepan-6-yl)-2-azaspiro[3.3]heptan-6-yl)-3-isopropyl-1H-pyrazol-4-yl)-5-(3-((1-(1H-tetrazol-1-yl)propan-2-yl)oxy)-4-chlorophenyl)pyrimidin-2-amine] came in with an IC50 under setting [1] below 10 nM. In the case of `C[C@@H](Cn1cnnn1)Oc1cc(-c2cnc(Nc3cn(CC(F)F)nc3C(F)(F)F)nc2)ccc1Cl` [Example 743, (S)-5-(3-((1-(1H-tetrazol-1-yl)propan-2-yl)oxy)-4-chlorophenyl)-N-(1-(2,2-difluoroethyl)-3-(trifluoromethyl)-1H-pyrazol-4-yl)pyrimidin-2-amine], the IC50 under setting [2] lay in the range of 10 to 100 nM.

Under setting [3], `COc1cc(N2CCNCC2)cnc1Nc1ncc(-c2ccc(Cl)c(O[C@@H](C)Cn3cnnn3)c2)cn1` [Example 621, (S)-5-(3-((1-(1H-tetrazol-1-yl)propan-2-yl)oxy)-4-chlorophenyl)-N-(3-methoxy-5-(piperazin-1-yl)pyridin-2-yl)pyrimidin-2-amine] gave an IC50 of 10 to 100 nM. Under setting [4], `C[C@@H](Cn1cnnn1)Oc1cc(-c2cnc(Nc3cn(C4CCN(CCO)CC4)nc3C(F)(F)F)nc2)ccc1Cl` [Example 535, (S)-2-(4-(4-((5-(3-((1-(1H-tetrazol-1-yl)propan-2-yl)oxy)-4-chlorophenyl)pyrimidin-2-yl)amino)-3-(trifluoromethyl)-1H-pyrazol-1-yl)piperidin-1-yl)ethan-1-ol] registered an IC50 below 10 nM. In turn, `C[C@@H](Cn1cnnn1)Oc1cc(-c2cnc(Nc3snnc3-c3ccc(Cl)cc3)nc2)ccc1Cl` [Example 748, (S)-N-(5-(3-((1-(1H-tetrazol-1-yl)propan-2-yl)oxy)-4-chlorophenyl)pyrimidin-2-yl)-4-(4-chlorophenyl)-1,2,3-thiadiazol-5-amine] yielded an IC50 under setting [2] of at least 100 nM.

Regarding `C[C@@H](Cn1cnnn1)Oc1cc(-c2cnc(Nc3cn(CC4(O)CCC4)nc3C(F)(F)F)nc2)ccc1F` [Example 858, (S)-1-((4-((5-(3-((1-(1H-tetrazol-1-yl)propan-2-yl)oxy)-4-fluorophenyl)pyrimidin-2-yl)amino)-3-(trifluoromethyl)-1H-pyrazol-1-yl)methyl)cyclobutan-1-ol], the IC50 under setting [2] lay within 10 to 100 nM. Regarding `C[C@@H](Cn1cnnn1)Oc1cc(-c2cnc(Nc3sc4c(c3C#N)CCC4)nc2)ccc1Cl` [Example 753, (S)-2-((5-(3-((1-(1H-tetrazol-1-yl)propan-2-yl)oxy)-4-chlorophenyl)pyrimidin-2-yl)amino)-5,6-dihydro-4H-cyclopenta[b]thiophene-3-carbonitrile], the IC50 under setting [2] is at least 100 nM.

The compound `C[C@@H](Cn1cnnn1)Oc1cc(-c2cnc(Nc3cn([C@H]4CC[C@H](N5CCC[C@H]5CO)CC4)nc3OC[C@@H]3CC3(F)F)nc2)ccc1Cl` [Example 871, ((S)-1-(trans-4-(4-((5-(3-(((S)-1-(1H-tetrazol-1-yl)propan-2-yl)oxy)-4-chlorophenyl)pyrimidin-2-yl)amino)-3-(((S)-2,2-difluorocyclopropyl)methoxy)-1H-pyrazol-1-yl)cyclohexyl)pyrrolidin-2-yl)methanol] showed an IC50 under setting [2] below 10 nM.

For the compound `CC(Cn1cnnn1)Oc1cc(-c2cnc(Nc3cn(CC4(O)CCC(N5CCOCC5)CC4)nc3OCC(F)(F)F)nc2)ccc1Cl` [Example 912, cis-1-((4-((5-(3-(((S)-1-(1H-tetrazol-1-yl)propan-2-yl)oxy)-4-chlorophenyl)pyrimidin-2-yl)amino)-3-(2,2,2-trifluoroethoxy)-1H-pyrazol-1-yl)methyl)-4-morpholinocyclohexan-1-ol], under setting [1], the IC50 is below 10 nM. Compound `C[C@@H](Cn1cnnn1)Oc1cc(-c2cnc(Nc3ccn(C)n3)nc2)ccc1Cl` [Example 755, (S)-5-(3-((1-(1H-tetrazol-1-yl)propan-2-yl)oxy)-4-chlorophenyl)-N-(1-methyl-1H-pyrazol-3-yl)pyrimidin-2-amine] gave an IC50 under setting [2] of 10 to 100 nM. Under setting [3], `C[C@@H](Cn1cnnn1)Oc1cc(-c2cnc(Nc3cn(C4C[C@@H]5CC[C@H]4C5)nc3C(F)(F)F)nc2)ccc1Cl` (stereo partly drawn) [Example 717, 5-(3-(((S)-1-(1H-tetrazol-1-yl)propan-2-yl)oxy)-4-chlorophenyl)-N-(1-((1S,4R)-bicyclo[2.2.1]heptan-2-yl)-3-(trifluoromethyl)-1H-pyrazol-4-yl)pyrimidin-2-amine] showed an IC50 of at least 100 nM.

As for `C[C@@H](Cn1cnnn1)Oc1cc(-c2cnc(Nc3cn(C4CCN(C(=O)OC(C)(C)C)CC4)nc3OCC(F)(F)F)nc2)ccc1Cl` [Example 675, tert-butyl (S)-4-(4-((5-(3-((1-(1H-tetrazol-1-yl)propan-2-yl)oxy)-4-chlorophenyl)pyrimidin-2-yl)amino)-3-(2,2,2-trifluoroethoxy)-1H-pyrazol-1-yl)piperidine-1-carboxylate], the IC50 under setting [3] fell in the range of 10 to 100 nM. The same measure, in the same setting: the value for `C[C@@H](Cn1cnnn1)Oc1cc(-c2cnc(Nc3cc(C(F)(F)F)nn3C)nc2)ccc1Cl` [Example 720, (S)-5-(3-((1-(1H-tetrazol-1-yl)propan-2-yl)oxy)-4-chlorophenyl)-N-(1-methyl-3-(trifluoromethyl)-1H-pyrazol-5-yl)pyrimidin-2-amine] was 10 to 100 nM. With `C[C@@H](Cn1cnnn1)Oc1cc(-c2cnc(Nc3cc4c(cc3Cl)CCN(C(=O)C(F)(F)F)CC4)nc2)ccc1C#N` [Example 525, (S)-2-((1-(1H-tetrazol-1-yl)propan-2-yl)oxy)-4-(2-((8-chloro-3-(2,2,2-trifluoroacetyl)-2,3,4,5-tetrahydro-1H-benzo[d]azepin-7-yl)amino)pyrimidin-5-yl)benzonitrile], under setting [4], the IC50 was in the range of 10 to 100 nM.

As for `COc1cnc(C2CCOCC2)cc1Nc1ncc(-c2ccc(Cl)c(O[C@@H](C)Cn3cnnn3)c2)cn1` [Example 517, (S)-5-(3-((1-(1H-tetrazol-1-yl)propan-2-yl)oxy)-4-chlorophenyl)-N-(5-methoxy-2-(tetrahydro-2H-pyran-4-yl)pyridin-4-yl)pyrimidin-2-amine], the IC50 under setting [4] was 10 to 100 nM. The same measure, in the same setting: the value for `C[C@@H](Cn1cnnn1)Oc1cc(-c2cnc(Nc3ccc4c(c3)CCN4C(=O)C3CCN(C)CC3)nc2)ccc1Cl` [Example 452, (S)-(5-((5-(3-((1-(1H-tetrazol-1-yl)propan-2-yl)oxy)-4-chlorophenyl)pyrimidin-2-yl)amino)indolin-1-yl) (1-methylpiperidin-4-yl)methanone] was below 10 nM.

As to `Cc1cc(Nc2ncc(-c3ccc(Cl)c(O[C@@H](C)Cn4cnnn4)c3)cn2)n(C(C)C)n1` [Example 742, (S)-5-(3-((1-(1H-tetrazol-1-yl)propan-2-yl)oxy)-4-chlorophenyl)-N-(1-isopropyl-3-methyl-1H-pyrazol-5-yl)pyrimidin-2-amine], under setting [2], the IC50 was in the range of 10 to 100 nM. In turn, `C[C@@H](Cn1cnnn1)Oc1cc(-c2cnc(Nc3cn([C@H]4CC[C@H](N5CC(C)(O)C5)CC4)nc3C(F)(F)F)nc2)ccc1Cl` [Example 804, 1-(trans-4-(4-((5-(3-(((S)-1-(1H-tetrazol-1-yl)propan-2-yl)oxy)-4-chlorophenyl)pyrimidin-2-yl)amino)-3-(trifluoromethyl)-1H-pyrazol-1-yl)cyclohexyl)-3-methylazetidin-3-ol] had an IC50 under setting [2] below 10 nM. Under setting [3], `C[C@@H](Cn1cnnn1)Oc1cc(-c2cnc(Nc3cc(-c4cccs4)nn3C)nc2)ccc1Cl` [Example 729, (S)-5-(3-((1-(1H-tetrazol-1-yl)propan-2-yl)oxy)-4-chlorophenyl)-N-(1-methyl-3-(thiophen-2-yl)-1H-pyrazol-5-yl)pyrimidin-2-amine] displayed an IC50 of 10 to 100 nM.
